Laboratory results reported in US20090062536A1, “USE OF SULFONANILIDE COMPOUNDS AS HERBICIDE” (Bayer CropScience AG, priority 2007, published 2009).

Experiments:
[1] = system: transplanted rice; experiment: Herbicidal damage on transplanted paddy rice, paddy field pot test; format: in vivo, Oryza sativa L. cultivar: Nihonbare; conditions: 125 g ai/ha applied onto water surface 5 days after transplanting; rated 3 weeks after treatment; 100% complete withering, 0% no damage
Description: (§1) Test of herbicidal effect to weeds and damage on paddy rice in a paddy field: In a greenhouse, each three paddy rice seedlings (Oryza sativa L. cultivar: Nihonbare) were transplanted in each pot filled with paddy field soil. Each twenty forced sprouts of paddy rice (Oryza sativa L. cultivar: Nihonbare) were also inoculated in each pot. Then, any of seeds or tubers of Cyperus difformis L., Echinochloa crus-galli, Scirpus juncoides, SU-resistant Scirpus juncoides, annual broad leaf weeds (including Lindernia procumbens Philcox, Rotala indica Koehne, and Elatine triandra Schk), SU-resistant annual broad leaf weeds, Sagittaria pygmaea Miq, Cyperus serotinus Rottboel was inoculated in the pot and covered with water in about 2 to 3 cm depth. Five days after transplanting paddy rice, prescribed diluted solutions of formulations of the respective active compounds were applied onto the water surface. Each of the formulations was prepared as an emulsion by mixing 1 part by weight of active compound with 5 parts by weight of carrier and 1 part by weight of emulsifier (benzyloxy polyglycol ether). After the treatment, water depth of 3 cm was kept. A herbicidal effect and a herbicidal damage on paddy rice were investigated 3 weeks after the treatment. The herbicidal effect and the herbicidal damage on paddy rice were rated as 100% in the case of complete withering and 0% in the case of no herbicidal effect or no herbicidal damage.

[2] = system: directley seeded rice; experiment: Herbicidal damage on directly seeded paddy rice, paddy field pot test; format: in vivo, Oryza sativa L. cultivar: Nihonbare; conditions: 125 g ai/ha applied onto water surface; rated 3 weeks after treatment; 100% complete withering, 0% no damage
Description: as §1

[3] = system: Cyperus serotinus; experiment: Herbicidal effect to weeds in a paddy field, pot test; format: in vivo, Cyperus serotinus Rottboel; conditions: 125 g ai/ha applied onto water surface; rated 3 weeks after treatment; 100% complete withering, 0% no effect
Description: as §1

[4] = system: Sagittaria pygmaea; experiment: as above; format: in vivo, Sagittaria pygmaea Miq; conditions: 125 g ai/ha applied onto water surface; rated 3 weeks after treatment; 100% complete withering, 0% no effect
Description: as §1

[5] = system: Echinochloa crus-galli; experiment: as above; format: in vivo; conditions: 125 g ai/ha applied onto water surface; rated 3 weeks after treatment; 100% complete withering, 0% no effect
Description: as §1

[6] = system: SU-resistant Scirpus juncoides; experiment: as above; format: in vivo; conditions: 125 g ai/ha applied onto water surface; rated 3 weeks after treatment; 100% complete withering, 0% no effect
Description: as §1

[7] = system: SU-resistant annual broad leaf weeds; experiment: as above; format: in vivo; conditions: 125 g ai/ha applied onto water surface; rated 3 weeks after treatment; 100% complete withering, 0% no effect
Description: as §1

[8] = system: Scirpus juncoides; experiment: as above; format: in vivo; conditions: 125 g ai/ha applied onto water surface; rated 3 weeks after treatment; 100% complete withering, 0% no effect
Description: as §1

[9] = system: annual broad leaf weeds; experiment: as above; format: in vivo; conditions: 125 g ai/ha applied onto water surface; rated 3 weeks after treatment; 100% complete withering, 0% no effect
Description: as §1

| Compound | herbicidal damage on transplanted rice [1] [%] | herbicidal damage on directley seeded rice [2] [%] | herbicidal effect Cyperus serotinus [3] [%] | herbicidal effect Sagittaria pygmaea [4] [%] | herbicidal effect Echinochloa crus-galli [5] [%] | herbicidal effect SU-resistant Scirpus juncoides [6] [%] | herbicidal effect SU-resistant annual broad leaf weeds [7] [%] | herbicidal effect Scirpus juncoides [8] [%] | herbicidal effect annual broad leaf weeds [9] [%] |
| --- | --- | --- | --- | --- | --- | --- | --- | --- | --- |
| COc1cc(OC)nc(C(O)c2cccc(Br)c2NS(=O)(=O)CC(F)(F)F)n1 (centres unmarked) [Compound 1, 2-bromo-6-[(4,6-dimethoxypyrimidin-2-yl)(hydroxy)methyl]-N-2,2,2-trifluoroethanesulfonanilide] | 0 | 10 | 100 | 100 | 100 | 100 | 100 | 100 | 100 |
| COc1cc(OC)nc(C(=O)c2cccc(Br)c2NS(=O)(=O)CC(F)(F)F)n1 [Compound 2, 2-bromo-6-[(4,6-dimethoxypyrimidin-2-yl)carbonyl]-N-2,2,2-trifluoroethanesulfonanilide] | 10 | 20 | 100 | 100 | 100 | 100 | 100 | 100 | 100 |
| COc1cc(OC)nc(C(SC)c2cccc(Br)c2NS(=O)(=O)CC(F)(F)F)n1 (centres unmarked) [Compound 4, 2-bromo-6-[(4,6-dimethoxypyrimidin-2-yl)methylthiomethyl]-N-2,2,2-trifluoroethanesulfonanilide] | 0 | 10 | 100 | 100 | 100 | 90 | 100 | 100 | 100 |
| COc1cc(OC)nc(C(O)c2cccc(I)c2NS(=O)(=O)CC(F)(F)F)n1 (centres unmarked) [Compound 5, 2-iodo-6-[(4,6-dimethoxypyrimidin-2-yl)(hydroxy)methyl]-N-2,2,2-trifluoroethanesulfonanilide] | 20 | 30 | 100 | 100 | 100 | 90 | 100 | 100 | 100 |
| COc1cc(OC)nc(C(SC)c2cccc(I)c2NS(=O)(=O)CC(F)(F)F)n1 (centres unmarked) [Compound 8, 2-iodo-6-[(4,6-dimethoxypyrimidin-2-yl)(methylthio)methyl]-N-2,2,2-trifluoroethanesulfonanilide] | 0 | 10 | 100 | 100 | 100 | 90 | 100 | 100 | 100 |
| COc1nc(OC)nc(C(=O)c2cccc(Br)c2N(C)S(=O)(=O)C(F)F)n1 [Compound 10, N-{2-bromo-6-[(4,6-dimethoxy-1,3,5-triazin-2-yl)carbonyl]phenyl}-N-methyl-1,1-difluoromethanesulfonamide] | 10 | 30 | 100 | 100 | 100 | 90 | 100 | 100 | 90 |
| COc1cc(Cl)nc(C(=O)c2cccc(Cl)c2N(C)S(=O)(=O)C(F)F)n1 [Compound 51, N-{2-chloro-6-[(4-chloro-6-methoxypyrimidin-2-yl)carbonyl]phenyl}-N-methyl-1,1-difluoromethanesulfonamide] | 10 | 30 | 100 | 100 | 100 | 90 | – | 100 | 90 |
